Data taken from paper PMC8365602 (Journal of Medicinal Chemistry, 2021).

Tests used:
[1] = target: T1, 5-LOX (Homo sapiens, UniProt P09917); assay: 5-LOX product formation in activated PMNL; settings: for remaining activity at 3 µM: PMNL, read-out: 5-LOX PMNL residual activity at 3 μM;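 for all read-outs here: freshly isolated human PMNL in PBS pH 7.4 plus glucose, preincubated 10 min at 37 °C with compound, 5-LOX products (all-trans LTB4 isomers, 5-HETE) quantified by RP-HPLC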
T1 sequence (P09917 1-674): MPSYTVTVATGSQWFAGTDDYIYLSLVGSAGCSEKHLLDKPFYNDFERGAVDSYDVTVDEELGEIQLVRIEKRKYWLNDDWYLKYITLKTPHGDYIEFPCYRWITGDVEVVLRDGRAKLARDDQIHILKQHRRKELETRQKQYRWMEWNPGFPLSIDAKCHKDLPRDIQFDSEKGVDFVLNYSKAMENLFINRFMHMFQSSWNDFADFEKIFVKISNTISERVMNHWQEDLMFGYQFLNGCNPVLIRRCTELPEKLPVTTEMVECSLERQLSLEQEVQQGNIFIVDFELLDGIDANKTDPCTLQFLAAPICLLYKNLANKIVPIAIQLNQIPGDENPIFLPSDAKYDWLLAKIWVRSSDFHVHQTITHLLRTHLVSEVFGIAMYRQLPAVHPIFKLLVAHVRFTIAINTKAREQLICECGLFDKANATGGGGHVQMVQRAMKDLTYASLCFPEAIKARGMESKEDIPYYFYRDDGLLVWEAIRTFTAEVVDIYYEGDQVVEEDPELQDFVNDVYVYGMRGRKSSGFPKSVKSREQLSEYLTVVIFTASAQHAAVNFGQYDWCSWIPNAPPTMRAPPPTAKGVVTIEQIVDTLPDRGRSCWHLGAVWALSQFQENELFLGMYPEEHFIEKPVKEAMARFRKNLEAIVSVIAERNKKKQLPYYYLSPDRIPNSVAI

[2] = target: T1, 5-LOX; assay: Cell-free 5-LOX activity (isolated human recombinant enzyme); settings: for remaining activity at 1 µM: read-out: 5-LOX enzyme residual activity at 1 μM
[3] = read-out: 5-LOX PMNL IC50, 5-LOX product formation in activated PMNL, mean ± SEM
[4] = read-out: 5-LOX enzyme IC50, isolated human 5-LOX, cell-free, mean ± SEM

Row | SMILES | remaining activity at 3 µM [1] | IC50 [1, 3] | IC50 [2, 4] | remaining activity at 1 µM [2] | IC50 [2] | IC50 [1]
1 | C/C(=C\CC[C@]1(C)CCc2cc(O)cc(C)c2O1)CC/C=C/C(=O)O [Compound 16, (2E,6E)-9-[(2R)-6-Hydroxy-2,8-dimethyl-3,4-dihydro-2H-1-benzopyran-2-yl]-6-methylnona-2,6-dienoic Acid] | 77 ± 3.9% | > 3000 nM | 920 ± 40 nM | 47.3 ± 1.1% |  | 
2 | C/C(=C\CC[C@]1(C)CCc2c(C)c(O)c(C)c(C)c2O1)CC/C=C(\C)CCC(=O)O [Compound 15a, (4E,8E)-11-((R)-6-Hydroxy-2,5,7,8-tetramethylchroman-2-yl)-4,8-dimethylundeca-4,8-dienoic Acid] | 10.6 ± 5.8% | 450 ± 120 nM | 440 ± 70 nM | 11.5 ± 1.8% |  | 
3 | COc1ccc(C2OCC(=CCC/C(C)=C/CC/C(C)=C/CC[C@]3(C)CCc4cc(OCCCC(=O)O)cc(C)c4O3)CO2)cc1OC (stereo partly drawn) [Compound 45, 4-(((2R)-2-((3E,7E)-11-(2-(3,4-Dimethoxyphenyl)-1,3-dioxan-5-ylidene)-4,8-dimethylundeca-3,7-dien-1-yl)-2,8-dimethylchroman-6-yl)oxy)butanoic Acid] |  |  |  | 83 ± 7.6% | > 1000 nM | 
4 | COc1ccc(C2OCC(=CCC/C(C)=C/CC/C(C)=C/CC[C@]3(C)CCc4cc(O)cc(C)c4O3)CO2)cc1OC (stereo partly shown) [Compound 44] |  |  |  | 12.7 ± 9.3% | 210 ± 140 nM | 
5 | C/C(=C\CC/C(C)=C/CC[C@]1(C)CCc2c(C)c(O)cc(C)c2O1)CCC=C(CO)CO [Compound 27b] | 0.9 ± 0.5% | 100 ± 20 nM | 90 ± 20 nM | 0% |  | 
6 | Cc1cc(O)cc2c1O[C@](C)(CCCC(C)CCCC(C)CCCC(C)C(=O)O)CC2 (stereo partly shown) [Compound 12b] | 40.8 ± 3.5% |  |  | 51.4 ± 3.1% |  | 
7 | C/C(=C\CC/C(C)=C/CC[C@]1(C)CCc2cc(O)c(C)c(C)c2O1)CCC=C(CO)CO [Compound 27c] | 0.8 ± 0.2% | 50 ± 40 nM |  | 0.1 ± 0.1% |  | 
8 | C/C(=C\CC/C(C)=C/CC[C@]1(C)CCc2c(CN3CCCCC3)c(O)cc(C)c2O1)CCC=C(CO)CO [Compound 38, 2-((4E,8E)-11-((R)-6-Hydroxy-2,8-dimethyl-5-(piperidin-1-ylmethyl)chroman-2-yl)-4,8-dimethylundeca-4,8-dien-1-ylidene)propane-1,3-diol] | 11.7 ± 1.8% | 1950 ± 70 nM | 110 ± 20 nM | 5.1 ± 0.9% |  | 
9 | C/C(=C\CC/C(C)=C/CC[C@]1(C)CCc2c(CO)c(O)cc(C)c2O1)CCC=C1COC(c2ccc([N+](=O)[O-])cc2)OC1 (stereo partly drawn) [Compound 48, (2R)-2-((3E,7E)-4,8-Dimethyl-11-(2-(4-nitrophenyl)-1,3-dioxan-5-ylidene)undeca-3,7-dien-1-yl)-5-(hydroxymethyl)-2,8-dimethylchroman-6-ol] | 15.4 ± 1.9% |  |  | 14 ± 3.2% | 210 ± 130 nM | 490 ± 130 nM
10 | COC(=O)C(C)CCC/C(C)=C/CC/C(C)=C/CC[C@]1(C)CCc2cc(OC)cc(C)c2O1 (stereo partly drawn) [Compound 22, (6E,10E)-Methyl-13-((R)-6-methoxy-2,8-dimethylchroman-2-yl)-2,6,10-trimethyltrideca-6,10-dienoate] |  |  | > 1000 nM | 88.7 ± 4.3% |  | 
11 | COc1cc(C)c2c(c1)CC[C@@](C)(CC/C=C(\C)CC/C=C(\C)CCCC(C)C(=O)O)O2 (stereo partly drawn) [Compound 20, (6E,10E)-13-((R)-6-Methoxy-2,8-dimethylchroman-2-yl)-2,6,10-trimethyltrideca-6,10-dienoic Acid] |  |  | > 1000 nM | 98.1 ± 1.3% |  | 
12 | C/C(=C\CC/C(C)=C/CC[C@]1(C)CCc2cc(OCC(N)=O)cc(C)c2O1)CCC=C(CO)CO [Compound 32, 2-(((R)-2-((3E,7E)-13-Hydroxy-12-(hydroxymethyl)-4,8-dimethyltrideca-3,7,11-trien-1-yl)-2,8-dimethylchroman-6-yl)oxy)acetamide] |  |  | > 1000 nM | 99.8 ± 5.6% |  | 
13 | C/C(=C\CC[C@]1(C)CCc2cc(O)cc(C)c2O1)CCC(O)C(C)(O)CCC=C(CO)CO (stereo partly shown) [Compound 30] |  |  | 380 ± 110 nM | 12.2 ± 4.1% |  | 
